# Test results as given in patent US8580786B2, “Triazine derivatives and their therapeutical applications” (Nant Holdings IP, LLC, priority 2006, dated 2013).
# Tested on: MX-1 (human breast carcinoma) cells
# Test: Cytotoxicity assay (Promega CellTiter Blue Cell Viability Assay), in vitro growth inhibition
# Assay type: cell-based
# Details: MX1, MX-1 cells, 72 hrs exposure to compound, CellTiter Blue fluorescence readout, read-out: IC50 (μM), cytotoxicity of triazine derivatives
# Protocol: A cytotoxicity assay was quantitated using the Promega CellTiter Blue Cell Viability Assay. Briefly, cells (5000 cells/well) were plated onto 96-well microtiter plates in RPMI 1640 medium supplemented with 10% FBS and incubated at 37° C. in a humidified 5% CO2 atmosphere. After 24 hrs., cells were exposed to various concentrations of compound in DMSO and cultured for another 72 hrs. 100 ul of media were removed and 20 ul of Promega CellTiter Blue reagent were added to each well and shaken to mix. After 4 hours of incubation at 37° C. in a humidified 5% CO2 atmosphere, the plates were read at 544 ex/620 em. The fluorescence produced is proportional to the number of viable cells. After plotting fluorescence produced against drug concentration, the IC50 was calculated as the […] of the resulting non-linear regression.
row,Compound,IC50 [µM]
1,Cc1nc(Cl)nc(Nc2ncc(C(=O)Nc3c(C)cccc3Cl)s2)n1 [Compound 4],12.2
2,Cc1nc(Nc2ncc(C(=O)Nc3c(C)cccc3Cl)s2)nc(N2CCN(CCO)CC2)n1 [Compound 5],16
3,Cc1nc(Nc2ncc(C(=O)Nc3c(C)cccc3Cl)s2)nc(N2CCN(c3ccncc3)CC2)n1 [Compound 6],2.6
4,Cc1nc(Nc2ncc(C(=O)Nc3c(C)cccc3Cl)s2)nc(N2CCN(C)CC2)n1 [Compound 7],38.7
5,Cc1nc(Nc2ncc(C(=O)Nc3c(C)cccc3Cl)s2)nc(N2CCOCC2)n1 [Compound 8],58.1
6,Cc1nc(Cl)nc(Nc2ccc(Oc3ccc(Cl)cc3)cc2)n1 [Compound 9],19.1
7,Cc1nc(Nc2ccc(Oc3ccc(Cl)cc3)cc2)nc(N2CCN(CCO)CC2)n1 [Compound 10],14.1
8,Cc1nc(Nc2ccc(Oc3ccc(Cl)cc3)cc2)nc(N2CCN(c3ccncc3)CC2)n1 [Compound 11],1.4
9,Cc1cccc(Cl)c1NC(=O)c1cnc(Nc2nc(Cl)nc(Nc3cnc(C(=O)Nc4c(C)cccc4Cl)s3)n2)s1 [Compound 12],237
10,Cc1cccc(Cl)c1NC(=O)c1cnc(Nc2nc(Cl)nc(N3CCN(CCO)CC3)n2)s1 [Compound 13],171
11,Cc1cccc(Cl)c1NC(=O)c1cnc(Nc2nc(N3CCN(c4ccncc4)CC3)nc(N3CCN(c4ccncc4)CC3)n2)s1 [Compound 14],131
